In paper PMC4182301, “Design, synthesis and SAR exploration of tri-substituted 1,2,4-triazoles as inhibitors of the annexin A2–S100A10 protein interaction” (Bioorganic & Medicinal Chemistry, 2014):
Where two headings read alike, the source gives them in different places.

Molecular target: interaction between the AnxA2 N-terminus and S100A10 (Homo sapiens, UniProt P60903)
Assay: Fluorescence screening assay (FRET competitive binding, Cy3-AnxA2(Ac1–14) peptide / Cy5-S100A10)
Settings: for pIC50 ± SE / IC50: FRET assay, 12 observations; for inhibitory activity (in words): truncation of 35 to 5-methyl derivative, and its side chain extension
Method: Assessment of compound activity was performed as described.[35] Briefly, a Cy5-labelled S100A10 tracer was developed and binding of a Cy3-labelled AnxA2(Ac1–14) peptide ligand was assessed using a fluorescence resonance energy transfer readout. Assays were carried out in Nunc black non-treated 384-well plates at 20 °C in 50 μL buffer C. All incubations were performed in quadruplicate. Compounds, peptide and buffer controls were added to the wells in a 10 μL volume in 5% DMSO. Cy5-labelled S100A10 tracer (407 nM) and Cy3-labelled AnxA2(Ac1–14) peptide ligand (1.33 μM) were pre-incubated for 5 min at 20 °C and 40 μL of the preformed complex was then added to the wells and mixed for 10 s to yield a final DMSO concentration of 1%. After 5 min incubation at 20 °C, readings were taken on a Perkin Elmer Envision plate reader by excitation at 488 nm and emission at 695 nm. Fluorescence resonance energy transfer (FRET) was calculated by subtracting the sum of the fluorescence emission of S100A10-Cy5 and AA2(1–14)-Cy3 individually from that measured for the co-incubated partners. Compound binding was calculated as percentage of non-treated control and data were analysed by non-linear regression (dose response—variable slope with bottom and top parameters fixed at 0% and 100%, respectively) using Graphpad Prism Software to determine the IC50 of binding (primary assay).

Sequence of interaction between the AnxA2 N-terminus and S100A10 (P60903 whole entry, species assumed): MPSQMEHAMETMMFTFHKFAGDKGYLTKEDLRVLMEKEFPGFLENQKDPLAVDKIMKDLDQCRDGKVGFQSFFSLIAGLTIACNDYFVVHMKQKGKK

Row | pIC50 ± SE (Table 2) | IC50 (Table 2, read-out: IC50) [µM] | IC50 (Table 1, read-out: IC50) [µM] | further results | SMILES
1 | 5.13 ± 0.04 | 7 | – | – | COCCCn1c(CSc2nc(C)cc(C)n2)nnc1SCC(=O)Nc1ccc(C(C)C)cc1 [Compound 47, 2-[5-(4,6-Dimethyl-pyrimidin-2-ylsulfanylmethyl)-4-(3-methoxy-propyl)-4H-[1,2,4]triazol-3-ylsulfanyl]-N-(4-isopropyl-phenyl)-acetamide]
2 | 4.82 ± 0.02 | 15 | – | – | COc1ccc(-n2c(CSc3nc(C)cc(C)n3)nnc2SCC(=O)Nc2ccc(C(C)C)cc2)cc1 [Compound 48, 2-[5-(4,6-Dimethyl-pyrimidin-2-ylsulfanylmethyl)-4-(4-methoxy-phenyl)-4H-[1,2,4]triazol-3-ylsulfanyl]-N-(4-isopropyl-phenyl)-acetamide]
3 | 5.35 ± 0.04 | 4 | – | fold increase in potency compared to initial hit compound 1a (relative to 1a): 10 fold | COc1ccc(-n2c(CSc3nc(C)cc(C)n3)nnc2SCC(=O)Nc2ccc(C(F)(F)F)cc2)cc1 [Compound 52, 2-[5-(4,6-Dimethyl-pyrimidin-2-ylsulfanylmethyl)-4-(4-methoxy-phenyl)-4H-[1,2,4]triazol-3-ylsulfanyl]-N-(4-trifluoromethyl-phenyl)-acetamide]
4 | – | – | 13 | pIC50 ± SE (Table 1): 4.89 ± 0.04 | Cc1cccc(NC(=O)CSc2nnc(CSc3nc(C)cc(C)n3)n2Cc2ccco2)c1 [Compound 32, 2-[5-(4,6-Dimethyl-pyrimidin-2-ylsulfanylmethyl)-4-furan-2-ylmethyl-4H-[1,2,4]triazol-3-ylsulfanyl]-N-m-tolyl-acetamide]
5 | 4.65 ± 0.05 | 22 | – | – | COc1ccc(-n2c(CSc3nc(C)cc(C)n3)nnc2SCC(=O)Nc2ccc(Cl)cc2)cc1 [Compound 55, N-(4-Chloro-phenyl)-2-[5-(4,6-dimethyl-pyrimidin-2-ylsulfanylmethyl)-4-(4-methoxy-phenyl)-4H-[1,2,4]triazol-3-ylsulfanyl]-acetamide]
6 | – | – | – | pIC50 ± SE (Table 3): 2.32 ± 0.48; IC50 (Table 3, read-out: IC50): > 1000 µM; inhibitory activity (in words): complete loss of activity | Cc1ccc(NC(=O)CSc2nnc(C)n2Cc2ccco2)cc1C [Compound 62, N-(3,4-Dimethyl-phenyl)-2-(4-furan-2-ylmethyl-5-methyl-4H-[1,2,4]triazol-3-ylsulfanyl)-acetamide]
7 | 4.62 ± 0.03 | 24 | – | – | Cc1cc(C)nc(SCc2nnc(SCCC(=O)Nc3ccc(C)c(C)c3)n2Cc2ccco2)n1 [Compound 45, N-(3,4-Dimethyl-phenyl)-3-[5-(4,6-dimethyl-pyrimidin-2-ylsulfanylmethyl)-4-furan-2-ylmethyl-4H-[1,2,4]triazol-3-ylsulfanyl]-propionamide]
8 | 4.56 ± 0.03 | 27 | – | – | C=CCn1c(CSc2nc(C)cc(C)n2)nnc1SCC(=O)Nc1ccc(C)c(C)c1 [Compound 41, 2-[4-Allyl-5-(4,6-dimethyl-pyrimidin-2-ylsulfanylmethyl)-4H-[1,2,4]triazol-3-ylsulfanyl]-N-(3,4-dimethyl-phenyl)-acetamide]
9 | – | – | 43 | pIC50 ± SE (Table 1): 4.37 ± 0.07 | Cc1cc(C)nc(SCc2nnc(SCC(=O)Nc3cc(C)on3)n2Cc2ccco2)n1 [Compound 30, 2-[5-(4,6-Dimethyl-pyrimidin-2-ylsulfanylmethyl)-4-furan-2-ylmethyl-4H-[1,2,4]triazol-3-ylsulfanyl]-N-(5-methyl-isoxazol-3-yl)-acetamide]
10 | 4.58 ± 0.04 | 27 | – | – | Cc1cc(C)nc(SCc2nnc(SCC(=O)Nc3ccc(C(C)C)cc3)n2-c2ccc(Cl)cc2)n1 [Compound 49, 2-[4-(4-Chloro-phenyl)-5-(4,6-dimethyl-pyrimidin-2-ylsulfanylmethyl)-4H-[1,2,4]triazol-3-ylsulfanyl]-N-(4-isopropyl-phenyl)-acetamide]
11 | 5.08 ± 0.04 | 8 | – | – | C=CCn1c(CSc2nc(C)cc(C)n2)nnc1SCC(=O)Nc1ccc(C(F)(F)F)cc1 [Compound 50, 2-[4-Allyl-5-(4,6-dimethyl-pyrimidin-2-ylsulfanylmethyl)-4H-[1,2,4]triazol-3-ylsulfanyl]-N-(4-trifluoromethyl-phenyl)-acetamide]
12 | 5.07 ± 0.03 | 8 | – | – | Cc1cc(C)nc(SCc2nnc(SCC(=O)Nc3ccc(C(F)(F)F)cc3)n2-c2ccc(Cl)cc2)n1 [Compound 53, 2-[4-(4-Chloro-phenyl)-5-(4,6-dimethyl-pyrimidin-2-ylsulfanylmethyl)-4H-[1,2,4]triazol-3-ylsulfanyl]-N-(4-trifluoromethyl-phenyl)-acetamide]
13 | – | – | 129 | pIC50 ± SE (Table 1): 3.89 ± 0.06 | Cc1cc(C)nc(SCc2nnc(SCC(=O)Nc3nccs3)n2Cc2ccco2)n1 [Compound 28, 2-[5-(4,6-Dimethyl-pyrimidin-2-ylsulfanylmethyl)-4-furan-2-ylmethyl-4H-[1,2,4]triazol-3-ylsulfanyl]-N-thiazol-2-yl-acetamide]
14 | – | – | – | pIC50 ± SE (Table 3): 3.86 ± 0.11; IC50 (Table 3, read-out: IC50): 138 µM; fold loss of activity on truncation of the 4,6-dimethylpyrimidin-2-ylsulfanyl side chain to methyl (relative to parent compound (64 vs 36, 65 vs 46, 66 vs 47)): 14 fold | C=CCn1c(C)nnc1SCC(=O)Nc1ccc(C(C)C)cc1 [Compound 65, 2-(4-Allyl-5-methyl-4H-[1,2,4]triazol-3-ylsulfanyl)-N-(4-isopropyl-phenyl)-acetamide]
15 | 4.23 ± 0.08 | 59 | – | – | Cc1cc(C)nc(SCc2nnc(SCC(=O)Nc3ccc(C)c(C)c3)n2-c2ccc(Cl)cc2)n1 [Compound 44, 2-[4-(4-Chloro-phenyl)-5-(4,6-dimethyl-pyrimidin-2-ylsulfanylmethyl)-4H-[1,2,4]triazol-3-ylsulfanyl]-N-(3,4-dimethyl-phenyl)-acetamide]
16 | 5.14 ± 0.04 | 7 | – | – | COc1ccc(-n2c(CSc3nc(C)cc(C)n3)nnc2SCC(=O)Nc2cc(C(F)(F)F)cc(C(F)(F)F)c2)cc1 [Compound 54, N-(3,5-Bis-trifluoromethyl-phenyl)-2-[5-(4,6-dimethyl-pyrimidin-2-ylsulfanylmethyl)-4-(4-methoxy-phenyl)-4H-[1,2,4]triazol-3-ylsulfanyl]-acetamide]
17 | – | – | 108 | IC50 (Table 1, read-out: pIC50 ± SE (converted)): 110 µM | COc1ccc(OCc2nnc(SC(C)C(=O)Nc3nccs3)n2-c2ccccc2)cc1 (centres unmarked) [Compound 1c]
18 | – | – | 23 | pIC50 ± SE (Table 1): 4.63 ± 0.04 | Cc1cc(C)nc(SCc2nnc(SCC(=O)Nc3ccccc3)n2Cc2ccco2)n1 [Compound 31, 2-[5-(4,6-Dimethyl-pyrimidin-2-ylsulfanylmethyl)-4-furan-2-ylmethyl-4H-[1,2,4]triazol-3-ylsulfanyl]-N-phenyl-acetamide]
19 | – | – | 10 | pIC50 ± SE (Table 1): 5.02 ± 0.04 | Cc1cc(C)nc(SCc2nnc(SCC(=O)Nc3ccc(C)c(C)c3)n2Cc2ccco2)n1 [Compound 35, N-(3,4-Dimethyl-phenyl)-2-[5-(4,6-dimethyl-pyrimidin-2-ylsulfanylmethyl)-4-furan-2-ylmethyl-4H-[1,2,4]triazol-3-ylsulfanyl]-acetamide]
20 | – | – | – | pIC50 ± SE (Table 3): 2.95 ± 0.26; IC50 (Table 3, read-out: IC50): > 1000 µM; inhibitory activity (in words): abolished activity | Cc1ccc(NC(=O)CCSc2nnc(C)n2Cc2ccco2)cc1C [Compound 63, N-(3,4-Dimethyl-phenyl)-3-(4-furan-2-ylmethyl-5-methyl-4H-[1,2,4]triazol-3-ylsulfanyl)-propionamide]
